Results published in paper PMC5516028, “Molecular tools for GABAA receptors: High affinity ligands for β1-containing subtypes” (Scientific Reports, 2017).
Values joined by “and” are separate entries in the source; they are usually repeats but may differ in a detail not shown here. Equal entries are not always repeated.

Assays:
Format in all cases: cell-based
[1] = target: T1, α1β1 GABAA receptors (Rattus norvegicus, UniProt P15431+P62813); assay: Two electrode voltage clamp in Xenopus laevis oocytes, α1β1; details: α1β1
T1 construct: expressed in transfected cells; host or cells: Xenopus laevis oocytes, mRNA injected
T1 sequence (P62813 28-455): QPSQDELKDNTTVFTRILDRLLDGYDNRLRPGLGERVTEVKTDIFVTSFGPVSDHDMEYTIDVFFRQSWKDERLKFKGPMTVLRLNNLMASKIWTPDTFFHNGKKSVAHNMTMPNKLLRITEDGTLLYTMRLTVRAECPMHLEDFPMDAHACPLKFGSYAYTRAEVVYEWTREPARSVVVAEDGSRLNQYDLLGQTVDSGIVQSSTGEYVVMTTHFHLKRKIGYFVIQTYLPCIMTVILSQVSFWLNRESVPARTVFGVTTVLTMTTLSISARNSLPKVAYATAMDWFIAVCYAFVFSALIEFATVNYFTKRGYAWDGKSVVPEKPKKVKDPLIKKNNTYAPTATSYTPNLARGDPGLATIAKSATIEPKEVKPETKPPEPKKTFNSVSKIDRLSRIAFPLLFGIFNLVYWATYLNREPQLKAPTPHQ
T1 sequence (P15431 26-474): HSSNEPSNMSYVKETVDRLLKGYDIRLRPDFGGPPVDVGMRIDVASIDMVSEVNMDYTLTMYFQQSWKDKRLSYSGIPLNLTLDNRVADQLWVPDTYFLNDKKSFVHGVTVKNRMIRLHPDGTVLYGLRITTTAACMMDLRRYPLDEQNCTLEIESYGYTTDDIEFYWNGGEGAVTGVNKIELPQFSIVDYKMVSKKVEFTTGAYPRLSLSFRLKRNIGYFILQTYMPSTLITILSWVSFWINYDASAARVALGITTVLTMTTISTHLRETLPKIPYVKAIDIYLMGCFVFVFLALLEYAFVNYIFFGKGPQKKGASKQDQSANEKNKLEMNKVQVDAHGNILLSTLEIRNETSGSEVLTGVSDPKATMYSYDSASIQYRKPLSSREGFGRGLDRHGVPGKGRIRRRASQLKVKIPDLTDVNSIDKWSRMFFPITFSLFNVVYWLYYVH
From the text: (§1) cDNA’s of rat GABAA receptor subunits α1, α4, β1, β2, β3 and γ2S were cloned as described. cDNAs of the rat subunits α2, α3 and α5 were gifts from P. Malherbe, that of α6 and γ1 were gifts of P. Seeburg and that of δ was a gift of C. Czajkowski. The mutants were constructed using the Q5 Site-Directed Mutagenesis Kit (New England Biolabs) following manufacturer’s instruction. We used the wild-type rat β3-pCI vector as template and the primers […] and […] resulting in a substitution of amino acid N41 (AAC) to R (AGG). We used the wild-type rat β1-pCI vector as template and the primers […] and […] resulting in a substitution of amino acid R41 (CGG) to N (AAC). The mutated subunits were confirmed by sequencing.
(§2) In vitro transcription of mRNA was based on the cDNA expression vectors encoding for rat GABAA receptor subunits α1–6, β1-3, γ1,2, δ and the two β mutants (β1R41N and β3N41R)[40]. After linearizing the cDNA vectors with appropriate restriction endonucleases, the cDNA was purified and concentrated with the DNA Clean and Contentrator ^TM Kit (Zymoresearch, Catalog No. D4005). Capped transcripts of the purified cDNA were produced using the mMESSAGE mMACHINE® T7 transcription kit (Ambion, TX, USA) and polyadenylated using the Ambion PolyA tailing kit (Ambion). After transcription and polyadenylation the RNA was purified with the MEGAclear ^TM Kit (Ambion, Catalog No. AM1908). The final RNA concentration was measured on NanoDrop® ND-1000 and finally diluted and stored in diethylpyrocarbonate-treated water at −80 °C. For the microinjection, the RNA of αβ receptor combinations was mixed at 1:1 ratio (which leads to αβ receptors that consist of predominantly 3 beta and 2 alpha subunits[27]), for αkβlγm (k = 1–3, l = 1, 3, m = 1, 2) receptors at 1:1:5 ratio, for αkβ3γ2 (k = 4–6) and αkβlδ (k = 1, 4 and 6, l = 1, 3) receptor combinations at 3:1:5 ratio.
(§3) Mature female Xenopus laevis (Nasco, WI) were anesthetized in a bath of ice-cold 0.17% Tricain (Ethyl-m-aminobenzoate, Sigma, MO) before decapitation in full accordance with all rules of the Austrian animal protection law (see http://www.ris.bka.gv.at/Dokumente/BgblAuth/BGBLA_2012_I_114/BGBLA_2012_I_114.pdf) and the Austrian animal experiment by-laws (see https://www.ris.bka.gv.at/Dokumente/BgblAuth/BGBLA_2012_II_522/BGBLA_2012_II_522.pdf) which implement the European Directive 2010/63/EU (see http://eur-lex.europa.eu/LexUriServ/LexUriServ.do?uri=OJ:L:2010:276:0033:0079:en:PDF) into the Austrian law (all information accessed on July 27, 2016). The frog’s ovaries were transferred to ND96 medium (96 mM NaCl, 2 mM KCl, 1 mM MgCl2, 5 mM HEPES; pH 7.5). Stage 5–6 oocytes with the follicle cell layer around them were roughly dissected with forceps into packages of 10–15 cells and washed in Ca^2+-free ND96 medium. Cells were then digested with collagenase (type IA, Sigma, NO, 1 mg/mL ND96) at 18 °C shaking at 30 rpm for 30–60 minutes and gently defolliculated with the aid of a glass pipette with appropriate tip diameter and a platinum loop. Defolliculated cells were stored at 18 °C for at least 6 hours in ND96 solution containing penicillin G (10000 IU/100 mL) and streptomycin (10 mg/100 mL) in order to preselect and exclude damaged cells from further treatment. Healthy defolliculated oocytes were injected with an aqueous solution of mRNA. A total of 4.5 ng of mRNA per oocyte was injected with a Nanoject II (Drummond). After injection of mRNA, oocytes were incubated at 18 °C (ND96 + antibiotic) for 2–3 days for αβ receptors and for 3–4 days for αβγ or αβδ receptors before recording. When cells were measured at later time points, oocytes were stored at +4 °C instead of 18 °C.
(§4) For electrophysiological recordings, oocytes were placed on a nylon-grid in a bath of Ca^2+-containing NDE solution medium [96 mM NaCl, 5 mM HEPES-NaOH (pH 7.5), 2 mM KCl, 1 mM MgCl2, 1.8 mM CaCl2].

[2] = target: T2, α1β2 GABAA receptors (Rattus norvegicus, UniProt P62813+P63138); assay: Two electrode voltage clamp in Xenopus laevis oocytes, α1β2; details: α1β2
T2 construct: expressed in transfected cells; host or cells: Xenopus laevis oocytes, mRNA injected
T2 sequence (P62813 28-455): as the sequence (P62813 28-455) above
T2 sequence (P63138 25-474 limits assumed): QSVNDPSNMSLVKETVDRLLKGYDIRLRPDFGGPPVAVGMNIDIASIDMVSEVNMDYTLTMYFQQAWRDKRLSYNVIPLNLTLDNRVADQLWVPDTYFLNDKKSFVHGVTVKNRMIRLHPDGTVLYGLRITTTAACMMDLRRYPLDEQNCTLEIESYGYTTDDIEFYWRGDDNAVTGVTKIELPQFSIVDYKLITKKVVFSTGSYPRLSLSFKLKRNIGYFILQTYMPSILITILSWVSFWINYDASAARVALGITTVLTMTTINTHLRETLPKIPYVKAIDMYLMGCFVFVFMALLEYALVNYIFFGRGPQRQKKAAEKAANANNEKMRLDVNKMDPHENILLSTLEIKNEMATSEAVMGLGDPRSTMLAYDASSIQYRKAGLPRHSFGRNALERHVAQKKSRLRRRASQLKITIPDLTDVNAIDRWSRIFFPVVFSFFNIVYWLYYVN
From the text: as §1, §2, §3, §4

[3] = target: T3, α1β3 GABAA receptors (Rattus norvegicus, UniProt P62813+P63079); assay: Two electrode voltage clamp in Xenopus laevis oocytes, α1β3; details: α1β3
T3 construct: expressed in transfected cells; host or cells: Xenopus laevis oocytes, mRNA injected
T3 sequence (P62813 28-455): as the sequence (P62813 28-455) above
T3 sequence (P63079 26-473): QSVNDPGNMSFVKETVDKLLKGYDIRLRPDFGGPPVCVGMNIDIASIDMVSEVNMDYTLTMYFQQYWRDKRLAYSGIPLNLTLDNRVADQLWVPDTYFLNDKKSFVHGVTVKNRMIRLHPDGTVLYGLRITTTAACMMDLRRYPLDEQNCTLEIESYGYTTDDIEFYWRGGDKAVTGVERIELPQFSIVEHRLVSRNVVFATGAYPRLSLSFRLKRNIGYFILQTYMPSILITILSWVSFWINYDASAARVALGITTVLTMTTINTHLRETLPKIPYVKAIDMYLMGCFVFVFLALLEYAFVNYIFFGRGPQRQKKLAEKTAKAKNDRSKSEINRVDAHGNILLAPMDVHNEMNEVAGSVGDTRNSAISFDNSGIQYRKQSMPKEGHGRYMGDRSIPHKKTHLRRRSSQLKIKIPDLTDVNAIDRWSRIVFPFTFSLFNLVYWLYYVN
From the text: as §1, §2, §3, §4

[4] = target: T4, α1β1R41N GABAA receptors (Rattus norvegicus, UniProt P15431+P62813, R66N); assay: Two electrode voltage clamp in Xenopus laevis oocytes, mutant α1β1R41N
T4 construct: expressed in transfected cells; host or cells: Xenopus laevis oocytes, mRNA injected
T4 sequence (P62813 28-455): as the sequence (P62813 28-455) above
T4 sequence (P15431 26-474 R66N): as the sequence (P15431 26-474) above, with R41N counted along it
From the text: as §1, §2, §3, §4

[5] = target: T5, α1β3N41R GABAA receptors (Rattus norvegicus, UniProt P62813+P63079, N66R); assay: Two electrode voltage clamp in Xenopus laevis oocytes, mutant α1β3N41R
T5 construct: expressed in transfected cells; host or cells: Xenopus laevis oocytes, mRNA injected
T5 sequence (P62813 28-455): as the sequence (P62813 28-455) above
T5 sequence (P63079 26-473 N66R): as the sequence (P63079 26-473) above, with N41R counted along it
From the text: as §1, §2, §3, §4

NCCCC(=O)O [GABA, γ-Aminobutyric acid]
GABA current amplitude ([1]; 100 nM GABA): 0.1±0.0 µA
GABA current amplitude ([1]; 1 µM GABA): 0.7±0.1 µA
GABA current amplitude ([1]; 10 μM GABA): 2.2±0.3 µA
GABA current amplitude ([1]; 100 µM GABA): 3.1±0.4 µA
GABA current amplitude ([1]; 1 mM GABA): 4.0±0.5 µA
GABA Hill slope (nH) ([1]; GABA dose-response curve): 0.6±0.3
GABA current amplitude ([2]; 100 nM GABA): 0.0±0.0 µA
GABA current amplitude ([2]; 1 µM GABA): 0.5±0.2 µA
GABA current amplitude ([2]; 10 μM GABA): 1.9±0.5 µA
GABA current amplitude ([2]; 100 µM GABA): 2.6±0.6 µA
GABA current amplitude ([2]; 1 mM GABA): 3.1±0.7 µA
GABA Hill slope (nH) ([2]; GABA dose-response curve): 0.7±0.1
GABA current amplitude ([3]; 100 nM GABA): 0.0±0.0 µA
GABA current amplitude ([3]; 1 µM GABA): 0.5±0.1 µA
GABA current amplitude ([3]; 10 μM GABA): 1.9±0.3 µA
GABA current amplitude ([3]; 100 µM GABA): 2.7±0.4 µA
GABA current amplitude ([3]; 1 mM GABA): 3.5±0.5 µA
GABA Hill slope (nH) ([3]; GABA dose-response curve): 0.7±0.0
GABA current amplitude ([4]; 100 nM GABA): 0.1±0.0 µA
GABA current amplitude ([4]; 1 µM GABA): 0.7±0.1 µA
GABA current amplitude ([4]; 10 μM GABA): 2.3±0.5 µA
GABA current amplitude ([4]; 100 µM GABA): 2.9±0.7 µA
GABA current amplitude ([4]; 1 mM GABA): 2.8±0.8 µA
GABA Hill slope (nH) ([4]; GABA dose-response curve): 1.2±0.1 and ~ 1.2
GABA current amplitude ([5]; 100 nM GABA): 0.0±0.0 µA
GABA current amplitude ([5]; 1 µM GABA): 1.3±0.5 µA
GABA current amplitude ([5]; 10 μM GABA): 3.5±0.9 µA
GABA current amplitude ([5]; 100 µM GABA): 4.0±1.1 µA
GABA current amplitude ([5]; 1 mM GABA): 4.1±1.2 µA
GABA Hill slope (nH) ([5]; GABA dose-response curve): 1.2±0.1 and ~ 1.2
